Structures can show the parent of a compound that is named as a salt. Where two headings read alike, the source gives them in different places.
How the values were obtained:
[1] = target: T1, recombinant human baculovirus-expressed GST-tagged FASN (Homo sapiens, UniProt P49327); test: FASN enzyme activity assay, fluorescence-based detection of CoA with CPM; type: biochemical; details: 5 nM FASN, 150 μM NADPH, 10 μM acetyl-CoA, 25 μM malonyl-CoA, 90 minutes incubation
T1 construct: GST
Outline: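 CoA product reacted with thiol-reactive CPM (diluted to 50 μM in 70% ethanol), read at 390/530 nm after 30 min. Preceding reaction: 90 min, 5 nM recombinant GST-FASN, 150 μM NADPH, 10 μM acetyl-CoA, 25 μM malonyl-CoA, pH 7.5 HEPES, 0.5% DMSO. IC50s fitted by nonlinear sigmoidal regression.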

[2] = read-out: IC50 data for Additional Compounds of Formulae I-V(a): Activity
[3] = read-out: IC50 data for Compounds of Formulae I-V/V(a): Activity

T1 sequence (P49327 whole entry): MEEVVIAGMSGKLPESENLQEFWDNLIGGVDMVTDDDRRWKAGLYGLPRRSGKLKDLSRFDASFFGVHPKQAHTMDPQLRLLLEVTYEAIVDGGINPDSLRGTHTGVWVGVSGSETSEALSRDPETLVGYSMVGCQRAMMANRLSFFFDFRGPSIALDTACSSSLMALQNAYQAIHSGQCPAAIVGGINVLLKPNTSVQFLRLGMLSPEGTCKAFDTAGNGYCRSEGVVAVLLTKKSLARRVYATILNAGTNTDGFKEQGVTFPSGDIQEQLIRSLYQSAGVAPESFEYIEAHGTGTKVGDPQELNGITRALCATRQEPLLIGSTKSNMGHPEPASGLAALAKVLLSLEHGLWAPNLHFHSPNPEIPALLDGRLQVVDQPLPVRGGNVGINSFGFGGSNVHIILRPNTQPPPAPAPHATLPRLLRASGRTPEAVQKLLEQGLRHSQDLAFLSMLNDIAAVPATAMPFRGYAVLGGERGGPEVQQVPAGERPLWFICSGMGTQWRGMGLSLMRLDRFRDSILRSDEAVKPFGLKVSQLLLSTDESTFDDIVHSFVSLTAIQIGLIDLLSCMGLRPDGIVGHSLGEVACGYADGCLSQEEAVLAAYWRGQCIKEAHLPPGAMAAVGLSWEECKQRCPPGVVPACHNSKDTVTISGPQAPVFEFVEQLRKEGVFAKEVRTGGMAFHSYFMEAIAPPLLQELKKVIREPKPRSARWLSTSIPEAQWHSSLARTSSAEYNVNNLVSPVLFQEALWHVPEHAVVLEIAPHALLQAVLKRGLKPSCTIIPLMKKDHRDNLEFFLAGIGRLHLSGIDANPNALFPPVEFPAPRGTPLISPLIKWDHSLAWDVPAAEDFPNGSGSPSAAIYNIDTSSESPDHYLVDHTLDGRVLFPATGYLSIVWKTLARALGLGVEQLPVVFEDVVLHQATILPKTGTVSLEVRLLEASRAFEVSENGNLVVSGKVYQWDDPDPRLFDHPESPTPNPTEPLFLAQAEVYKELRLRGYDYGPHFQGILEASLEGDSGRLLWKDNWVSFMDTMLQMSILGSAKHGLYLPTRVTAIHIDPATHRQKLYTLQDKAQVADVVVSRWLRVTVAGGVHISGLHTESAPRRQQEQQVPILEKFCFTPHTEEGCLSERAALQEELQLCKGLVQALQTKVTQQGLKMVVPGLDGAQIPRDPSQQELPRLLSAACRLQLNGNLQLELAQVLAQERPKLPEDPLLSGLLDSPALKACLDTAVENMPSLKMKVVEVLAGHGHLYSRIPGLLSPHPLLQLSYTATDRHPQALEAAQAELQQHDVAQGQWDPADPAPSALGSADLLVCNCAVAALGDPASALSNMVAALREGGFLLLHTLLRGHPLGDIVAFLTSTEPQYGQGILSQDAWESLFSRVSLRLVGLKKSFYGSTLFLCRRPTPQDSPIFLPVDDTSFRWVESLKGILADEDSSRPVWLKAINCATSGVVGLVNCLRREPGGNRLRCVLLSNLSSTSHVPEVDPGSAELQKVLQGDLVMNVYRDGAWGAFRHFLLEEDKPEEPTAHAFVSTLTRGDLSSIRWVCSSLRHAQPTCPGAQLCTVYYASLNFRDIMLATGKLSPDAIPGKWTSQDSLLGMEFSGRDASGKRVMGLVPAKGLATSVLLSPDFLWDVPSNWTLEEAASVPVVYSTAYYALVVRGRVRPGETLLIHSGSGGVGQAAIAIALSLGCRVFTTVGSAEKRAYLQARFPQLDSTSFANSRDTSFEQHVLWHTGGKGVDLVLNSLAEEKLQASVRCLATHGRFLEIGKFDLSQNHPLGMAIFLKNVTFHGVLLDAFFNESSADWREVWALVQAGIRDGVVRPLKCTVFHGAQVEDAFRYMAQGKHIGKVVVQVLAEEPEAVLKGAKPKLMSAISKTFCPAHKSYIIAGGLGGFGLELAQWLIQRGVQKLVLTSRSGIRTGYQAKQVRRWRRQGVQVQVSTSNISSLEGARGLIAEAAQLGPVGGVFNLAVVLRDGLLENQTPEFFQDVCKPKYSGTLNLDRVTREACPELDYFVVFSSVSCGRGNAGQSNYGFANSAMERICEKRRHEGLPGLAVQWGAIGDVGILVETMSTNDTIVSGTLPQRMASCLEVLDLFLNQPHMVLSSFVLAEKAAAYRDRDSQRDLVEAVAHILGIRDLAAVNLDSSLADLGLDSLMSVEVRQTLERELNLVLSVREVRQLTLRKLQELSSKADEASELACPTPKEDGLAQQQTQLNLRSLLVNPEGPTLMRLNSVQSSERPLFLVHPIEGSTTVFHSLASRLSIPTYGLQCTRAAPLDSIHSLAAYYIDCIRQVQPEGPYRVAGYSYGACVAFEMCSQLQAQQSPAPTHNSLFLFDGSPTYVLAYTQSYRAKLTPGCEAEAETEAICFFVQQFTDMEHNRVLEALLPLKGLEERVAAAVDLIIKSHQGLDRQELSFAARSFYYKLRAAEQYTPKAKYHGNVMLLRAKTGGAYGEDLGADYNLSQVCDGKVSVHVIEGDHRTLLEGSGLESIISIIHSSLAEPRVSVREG

In the case of `O=C(C1CC1)N1CCC(Oc2ccc(-c3ccc4cccnc4c3)nc2)CC1` (as salt: HCl) [Example 146, Cyclopropyl-[4-(6-quinolin-7-yl-pyridin-3-yloxy)-piperidin-1-yl]-methanone, 2HCl], the melting point is reported as 170 to 175 °C.

`O=C(C1CCCC1)N1CCC(Oc2ccc(-c3cnc4ccccc4c3)cc2)CC1` (as salt: HCl) [Example 102, Cyclopentyl-[4-(4-quinolin-3-yl-phenoxy)-piperidin-1-yl]-methanone, 2HCl] gave a melting point of 145 to 147 °C.

With `CCNC(=O)N1CCC(Oc2ccc(-c3ccc4nccn4c3Cl)cc2)CC1` [Example 564, 4-[4-(5-Chloroimidazo[1,2-a]pyridin-6-yl)phenoxy]-N-ethyl-piperidine-1-carboxamide] the melting point was 189 to 193 °C and the IC50 [1, 2] was 1000 to 10000 nM.

With `COCCNC(=O)N1CCC(Oc2ccc(-c3ccc4nccn4c3Cl)cc2)CC1` [Example 567, 4-[4-(5-Chloroimidazo[1,2-a]pyridin-6-yl)phenoxy]-N-(2-methoxyethyl)-piperidine-1-carboxamide] the melting point was 135 to 138 °C and the IC50 [1, 2] was 100 to 999 nM.

With `CCC(=O)N1CC(Oc2ccc(-c3cnc4ccccc4c3)cc2)C1` [Example 338, 1-(3-(4-(Quinolin-3-yl)phenoxy)azetidin-1-yl)propan-1-one] the melting point was 172 °C and the IC50 [1, 3] was 100 to 999 nM.

In the case of `CCC(=O)N1CCC(Oc2ccc(-c3cnc4ccccc4c3)cc2Cl)CC1` [Example 191, 1-[4-(2-Chloro-4-quinolin-3-yl-phenoxy)-piperidin-1-yl]-propan-1-one], the melting point is reported as 183 to 185 °C and the IC50 [1, 3] is reported as 1000 to 10000 nM.

`CCCONC(=O)N1CCC(Oc2ccc(-c3ccc4c(C)nccc4c3)cc2)CC1` [Example 584, 4-[4-(1-Methyl-6-isoquinolyl)phenoxy]-N-propoxypiperidine-1-carboxamide] gave a melting point of 165 °C and an IC50 [1, 2] of 1 to 99 nM.

`CC(C)ONC(=O)N1CCC(Oc2ccc(-c3ccc4nccn4c3Cl)cc2)CC1` [Example 569, 4-[4-(5-Chloroimidazo[1,2-a]pyridin-6-yl)phenoxy]-N-isopropoxy-piperidine-1-carboxamide] showed a melting point of 175 °C and an IC50 [1, 2] of 100 to 999 nM.

`O=C(NO)N1CCC(Oc2ccc(-c3ccc4nccn4c3Cl)cc2)CC1` [Example 575, 4-[4-(5-Chloroimidazo[1,2-a]pyridin-6-yl)phenoxy]piperidine-1-carbohydroxamic acid] showed a melting point of 232 °C and an IC50 [1, 2] of 1 to 99 nM.

Work on `CCONC(=O)N1CCC(Oc2ccc(-c3cnc4ccccc4c3C)cc2)CC1` [Example 587, N-Ethoxy-4-[4-(4-methyl-3-quinolyl)phenoxy]piperidine-1-carboxamide] yielded a melting point of 152 °C and an IC50 [1, 2] of 1 to 99 nM.

With `CC(C)CC(=O)N1CC(Oc2ccc(-c3cnc4ccccc4c3)cc2)C1` [Example 341, 3-Methyl-1-(3-(4-(quinolin-3-yl)phenoxy)azetidin-1-yl)butan-1-one] the melting point was 201 °C and the IC50 [1, 3] was 1000 to 10000 nM.

In the case of `CCCNC(=O)N1CCC(Oc2ccc(-c3cnc4ccccc4c3C)cc2)CC1` [Example 591, 4-[4-(4-Methyl-3-quinolyl)phenoxy]-N-propyl-piperidine-1-carboxamide], the melting point is reported as 171 °C and the IC50 [1, 2] is reported as 1 to 99 nM.

For `CC(C)C(=O)N1CCC(Sc2ccc(-c3ccc4cnccc4c3)cc2)CC1` (as salt: HCl) [Example 521, 1-(4-((4-(Isoquinolin-6-yl)phenyl)thio)piperidin-1-yl)-2-methylpropan-1-one HCl], the melting point was 228 °C.

For `O=C(C1CCC1)N1CCC(Oc2ccc(-c3cnc4ccccc4c3)cc2)CC1` (as salt: HCl) [Example 101, Cyclobutyl-[4-(4-quinolin-3-yl-phenoxy)-piperidin-1-yl]-methanone,HCl], the melting point was 164 to 166 °C.

In the case of `CCC(=O)N1CCC(Oc2ccc(-c3ccc4cnccc4c3)nc2)CC1` (as salt: HCl) [Example 147, 1-[4-(6-Isoquinolin-6-yl-pyridin-3-yloxy)-piperidin-1-yl]-propan-1-one, 2HCl], the melting point is reported as 236 to 245 °C.

Molecule `CCC(=O)N1CC[C@H](Oc2ccc(-c3cnc4ccccc4c3)cc2)C1` (as salt: HCl) [Example 343, (S)-1-(3-(4-(Quinolin-3-yl)phenoxy)pyrrolidin-1-yl)propan-1-one, HCl] has a melting point of 60 °C.

In the case of `CC(C)C(=O)N1CCC(Sc2ccc(-c3cnc4ccccc4c3)cc2)CC1` (as salt: HCl) [Example 522, 2-Methyl-1-(4-((4-(quinolin-3-yl)phenyl)thio)piperidin-1-yl)propan-1-one, HCl], the melting point is reported as 130 °C.

Molecule `O=C(C1CC1)N1CCC(Oc2ncc(-c3cnc4ccccc4c3)cn2)CC1` (as salt: HCl) [Example 139, Cyclopropyl-[4-(5-quinolin-3-yl-pyrimidin-2-yloxy)-piperidin-1-yl]-methanone, 2HCl] has a melting point of 150 to 153 °C.

For `CCC(=O)N1CCC(Sc2ccc(-c3ccc4cnccc4c3)cc2)CC1` (as salt: HCl) [Example 517, 1-(4-((4-(Isoquinolin-6-yl)phenyl)thio)piperidin-1-yl)propan-1-one, HCl], the melting point was 222 °C.

In the case of `CC(C)C(=O)N1CCC(Oc2ccc(-c3ccc4cnccc4c3)nc2)CC1` (as salt: HCl) [Example 148, 1-[4-(6-Isoquinolin-6-yl-pyridin-3-yloxy)-piperidin-1-yl]-2-methyl-propan-1-one, 2HCl], the melting point is reported as 236 to 241 °C.

Work on `CC(C)C(=O)N1CCC(Oc2ncc(-c3cnc4ccccc4c3)cn2)CC1` (as salt: HCl) [Example 138, 2-Methyl-1-[4-(5-quinolin-3-yl-pyrimidin-2-yloxy)-piperidin-1-yl]-propan-1-one, 2HCl] yielded a melting point of 124 to 130 °C.

Molecule `O=C(C1CC1)N1CCC(Oc2ccc(-c3cnc4ccccc4c3)nc2)CC1` (as salt: HCl) [Example 142, Cyclopropyl-[4-(6-quinolin-3-yl-pyridin-3-yloxy)-piperidin-1-yl]-methanone, 2HCl] has a melting point of 230 to 234 °C.

With `CCC(=O)N1CCC(Oc2ccc(-c3cnc4ccccc4c3)nc2)CC1` (as salt: HCl) [Example 140, 1-[4-(6-Quinolin-3-yl-pyridin-3-yloxy)-piperidin-1-yl]-propan-1-one, 2HCl] the melting point was 207 to 212 °C.

Molecule `O=C(C1CC1)N1CCC(Oc2ccc(-c3cnc4ccccc4c3)cc2)CC1` (as salt: HCl) [Example 100, Cyclopropyl-[4-(4-quinolin-3-yl-phenoxy)-piperidin-1-yl]-methanone,HCl] has a melting point of 170 to 173 °C.

In the case of `CCC(=O)N1CC[C@@H](Oc2ccc(-c3ccc4cccnc4c3)cc2)C1` (as salt: HCl) [Example 344, (R)-1-(3-(4-(Quinolin-7-yl)phenoxy)pyrrolidin-1-yl)propan-1-one, HCl], the melting point is reported as 53 °C.

For `CCC(=O)N1CC[C@@H](Oc2ccc(-c3cnc4ccccc4c3)cc2)C1` (as salt: HCl) [Example 345, (R)-1-(3-(4-(quinolin-3-yl)phenoxy)pyrrolidin-1-yl)propan-1-one, HCl], the melting point was 51 °C.

With `CC(C)C(=O)N1CCC(Sc2ccc(-c3ccc4cccnc4c3)cc2)CC1` (as salt: HCl) [Example 520] the melting point was 120 °C.

With `CC(C)C(=O)N1CCC(Oc2ccc(-c3ccc4cccnc4c3)nc2)CC1` (as salt: HCl) [Example 145, 2-Methyl-1-[4-(6-quinolin-7-yl-pyridin-3-yloxy)-piperidin-1-yl]-propan-1-one, 2HCl] the melting point was 170 to 179 °C.

Work on `CC(C)C(=O)N1CCC(Sc2ccc(-c3cncc4ccccc34)cc2)CC1` (as salt: HCl) [Example 523, 1-(4-((4-(Isoquinolin-4-yl)phenyl)thio)piperidin-1-yl)-2-methylpropan-1-one HCl] yielded a melting point of 120 °C.

`CCC(=O)N1CCC(Oc2ccc(-c3ccc4cccnc4c3)nc2)CC1` (as salt: HCl) [Example 144, 1-[4-(6-Quinolin-7-yl-pyridin-3-yloxy)-piperidin-1-yl]-propan-1-one, 2HCl] gave a melting point of 90 to 96 °C.

Molecule `CCC(=O)N1CCC(Sc2ccc(-c3cnc4ccccc4c3)cc2)CC1` (as salt: HCl) [Example 518, 1-(4-((4-(Quinolin-3-yl)phenyl)thio)piperidin-1-yl)propan-1-one, HCl] has a melting point of 70 °C.

With `CC(C)C(=O)N1CCC(Oc2ccc(-c3cnc4ccccc4c3)nc2)CC1` (as salt: HCl) [Example 141, 2-Methyl-1-[4-(6-quinolin-3-yl-pyridin-3-yloxy)-piperidin-1-yl]-propan-1-one, 2HCl] the melting point was 99 to 102 °C.

Work on `CCC(=O)N1CCC(Sc2ccc(-c3cncc4ccccc34)cc2)CC1` (as salt: HCl) [Example 519, 1-(4-((4-(Isoquinolin-4-yl)phenyl)thio)piperidin-1-yl)propan-1-one, HCl] yielded a melting point of 88 °C.

For `CCC(=O)N1CCC(Sc2ccc(-c3ccc4cccnc4c3)cc2)CC1` (as salt: HCl) [Example 516, 1-(4-((4-(quinolin-7-yl)phenyl)thio)piperidin-1-yl)propan-1-one, HCl], the melting point was 188 °C.

For `O=C(C1CC1)N1CCC(Oc2ccc(-c3ccc4cnccc4c3)nc2)CC1` (as salt: HCl) [Example 149, Cyclopropyl-[4-(6-isoquinolin-6-yl-pyridin-3-yloxy)-piperidin-1-yl]-methanone, 2HCl], the melting point was 136 to 146 °C.

In the case of `CCC(=O)N1CCC(Oc2ccc(-c3ccc4c(C5CC5)nccc4c3)cc2)CC1` [Example 439, 1-{4-[4-(1-Cyclopropyl-isoquinolin-6-yl)-phenoxy]-piperidin-1-yl}-propan-1-one], the IC50 [1, 3] is reported as 1000 to 10000 nM.

`CCC(=O)N1CCC(Oc2ccc(-c3ccc4cccnc4c3O)cc2)CC1` [Example 188, 1-{4-[4-(8-Hydroxyquinolin-7-yl)-phenoxy]-piperidin-1-yl}-propan-1-one, HCl] showed an IC50 [1, 3] of 100 to 999 nM.
